Source: patent publication US9102591B2, “Benzamides” (H. Lundbeck A/S, priority 2012, dated 2015)

Target: P2X7 receptor (Homo sapiens (Human), UniProt Q99572)
Assay: P2X7 FLIPR assay (BzATP-stimulated calcium fluorescence, antagonist IC50)
Type: cell-based
In short: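 Cells expressing P2X7 receptor (human, rat or mouse), plated 24 hours earlier in low-serum medium, loaded with Fluo-4 NW dye (30 min 37° C, 30 min room temperature).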

Sequence of P2X7 receptor (Q99572 whole entry): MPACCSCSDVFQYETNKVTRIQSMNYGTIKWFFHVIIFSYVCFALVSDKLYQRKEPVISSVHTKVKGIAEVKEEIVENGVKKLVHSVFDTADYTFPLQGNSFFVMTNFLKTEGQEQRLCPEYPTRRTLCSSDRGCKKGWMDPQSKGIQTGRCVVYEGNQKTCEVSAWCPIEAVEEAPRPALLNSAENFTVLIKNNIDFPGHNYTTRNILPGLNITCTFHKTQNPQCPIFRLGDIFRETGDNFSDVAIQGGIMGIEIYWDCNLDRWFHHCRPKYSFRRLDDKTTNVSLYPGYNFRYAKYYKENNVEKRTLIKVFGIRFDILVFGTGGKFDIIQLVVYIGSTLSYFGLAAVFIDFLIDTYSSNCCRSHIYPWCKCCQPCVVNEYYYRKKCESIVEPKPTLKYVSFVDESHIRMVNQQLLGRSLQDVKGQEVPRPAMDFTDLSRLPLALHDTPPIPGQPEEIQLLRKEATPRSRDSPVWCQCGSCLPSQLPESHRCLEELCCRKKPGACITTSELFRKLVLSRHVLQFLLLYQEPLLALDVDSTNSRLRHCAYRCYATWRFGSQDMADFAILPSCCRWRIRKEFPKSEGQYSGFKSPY

Row | Structure (SMILES) | IC50 [nM]
1 | Cc1ccc(Cl)c(C(=O)NCC2(c3cccnc3)CCCC2)c1 [2-Chloro-5-methyl-N-(1-pyridin-3-yl-cyclopentylmethyl)-benzamide] | 2900
2 | Cc1cccc(C(=O)NCC2(c3ccc(Cl)cc3)CCOCC2)c1C [N-[4-(4-Chloro-phenyl)-tetrahydro-pyran-4-ylmethyl]-2,3-dimethyl-benzamide] | 170
3 | O=C(NCC(CC1CC1)c1ccc(C(F)(F)F)nc1)c1c(F)cccc1F (single isomer, unassigned; (-)) [(−)N-[3-cyclopropyl-2-[6-(trifluoromethyl)-3-pyridyl]propyl]] | 130
4 | Cc1ncc(C2(C(C)NC(=O)c3ccccc3Cl)CCC(F)(F)CC2)cn1 (stereo not drawn) [2-chloro-N-[1-[4,4-difluoro-1-(2-methylpyrimidin-5-yl)cyclohexyl]ethyl]benzamide] | 1600
5 | O=C(NCC(CC1CC1)c1cnc(C(F)F)nc1)c1cccc(Cl)c1Cl (single isomer, unassigned; (+)) [(+)2,3-dichloro-N-[3-cyclopropyl-2-[2-(difluoromethyl)pyrimi] [(+)2,3-dichloro-N-[3-cyclopropyl-2-[2-(difluoromethyl)pyrimidin-5-yl]propyl]benzamide] | 23
6 | O=C(NCC1(c2ccc(C(F)(F)F)cc2)CCOCC1)c1cccc(Cl)c1Cl | 41
7 | O=C(NCC(c1ccccc1)c1ccc(Cl)cc1)c1cccc(Cl)c1Cl (stereo not drawn) [2,3-dichloro-N-(2-(4-chlorophenyl)-2-phenylethyl)benzamide] | 120
8 | O=C(NCC(CC1(C(F)(F)F)CC1)c1ccc(C(F)(F)F)nc1)c1cccc(Cl)c1Cl (stereo not drawn) [2,3-dichloro-N-[3-[1-(trifluoromethyl)cyclopropyl]-2-[6-(tri] [2,3-dichloro-N-[3-[1-(trifluoromethyl)cyclopropyl]-2-[6-(trifluoromethyl)-3-pyridyl]propyl]benzamide] | 19
9 | CC(CNC(=O)c1cccc(Cl)c1Cl)(CC1CC1)c1cnc(C(F)(F)F)nc1 (single isomer, unassigned; (+)) [(+)2,3-dichloro-N-[3-cyclopropyl-2-methyl-2-[2-(trifluoromethyl)pyrimidin-5-yl]propyl]benzamide] | 74

These reach a lower IC50. Values come first.

Row | IC50 [nM] | Structure (SMILES)
10 | 1.1 | O=C(NCC(c1ccc(F)cc1)c1cnc(C(F)(F)F)nc1)c1cccc(Cl)c1Cl (single isomer, unassigned; (+)) [(+)2,3-dichloro-N-[2-(4-fluorophenyl)-2-[2-(trifluoromethyl)] [(+)2,3-dichloro-N-[2-(4-fluorophenyl)-2-[2-(trifluoromethyl)pyrimidin-5-yl]ethyl]benzamide]
11 | 0.28 | O=C(NCC1(c2ccc(F)nc2)CCC(F)(F)CC1)c1cccc(Cl)c1Cl [2,3-dichloro-N-[[4,4-difluoro-1-(6-fluoro-3-pyridyl)cyclohexyl]methyl]benzamide]
12 | 3.2 | O=C(NCC(CC1CC1)c1cnc(C(F)(F)F)nc1)c1ccccc1Cl (single isomer, unassigned; (-)) [(−)2-chloro-N-[3-cyclopropyl-2-[2-(trifluoromethyl)pyrimidin] [(−)2-chloro-N-[3-cyclopropyl-2-[2-(trifluoromethyl)pyrimidin-5-yl]propyl]benzamide]
13 | 3.4 | O=C(NCC(CC1CC1)c1ccc(C(F)(F)F)nc1)c1ccccc1Cl (stereo not drawn) [2-chloro-N-[3-cyclopropyl-2-[6-(trifluoromethyl)-3-pyridyl]propyl]benzamide]
14 | 15 | O=C(NCC(c1ccc(F)cc1)c1ccc(C(F)(F)F)nc1)c1c(F)cccc1Cl (single isomer, unassigned; (+)) [(+)2-chloro-6-fluoro-N-[2-(4-fluorophenyl)-2-[6-(trifluorome] [(+)2-chloro-6-fluoro-N-[2-(4-fluorophenyl)-2-[6-(trifluoromethyl)-3-pyridyl]ethyl]benzamide]
15 | 2.4 | O=C(NCC(CC1(C(F)(F)F)CC1)c1cnc(C(F)(F)F)nc1)c1ccccc1Cl (single isomer, unassigned; (+)) [(+)2-chloro-N-[3-[1-(trifluoromethyl)cyclopropyl]-2-[2-(trifluoromethyl)pyrimidin-5-yl]propyl]benzamide]
